Data published in article PMC8764033, “Single-molecule analysis of specificity and multivalency in binding of short linear substrate motifs to the APC/C” (Nature Communications, 2022).
Where a SMILES comes first, the peptide text is derived from it.

Assays:
APC/C^Apc10-4A, Cdc20 = test: SMOR assay, yeast APC/C^Apc10-4A, Cdc20; type: binding, Saccharomyces cerevisiae
Method: (§1) Yeast strains were derivatives of W303 and are listed in Supplementary Table 2. For APC/C purification, we used a strain carrying Cdc16-TAP and lacking Cdh1 (DOM1126); in most experiments, the strain also carried Apc1-GFP (NHY13). Yeast were grown in YPD media to OD600 = 0.8, collected and flash-frozen. Cells were lysed by bead beating in lysis buffer A (50 mM HEPES pH 7.5, 150 mM KCl, 10% glycerol, 0.2% Triton X-100, 63 µM B-glycerophosphate, 48 µM sodium fluoride, 1 µg ml^−1 pepstatin A, 1 µg ml^−1 leupeptin, 1 µg ml^−1 aprotinin, 1 mM PMSF, 1 mM DTT, 0.5 mM EDTA) and APC/C was purified using magnetic IgG beads. The beads were washed using wash buffer A (20 mM HEPES pH 7.5, 150 mM KCl, 10% Glycerol, 0.05% Triton X-100). After incubation with purified Cdh1 or Cdc20, the APC/C was cleaved off the beads with TEV protease in wash buffer A with 0.05% Tween-20 (for single-molecule studies) or 0.05% Triton X-100 (for ensemble assays such as ubiquitylation) and used immediately.
(§2) For all SMOR experiments, 24 × 50 mm high precision glass coverslips (Bioscience Tools) and drilled microscope slides were passivated with a combination of PEG and PEG-biotin (coverslips) or PEG only (slides) following a previously published protocol for SiMPull[31]. Reaction chambers (~20 µl) were created using double-sided tape and epoxy. Protein was immobilized on the surface with 0.2 mg ml^−1 NeutrAvidin in buffer C (20 mM HEPES pH 7.5, 150 mM KCl, 10% glycerol, 0.05% Tween-20, 1 mM DTT). Excess NeutrAvidin was washed away and incubated with either biotin-conjugated mouse monoclonal anti-Strep-Tag II antibody (LSBio, Cat. No. LS-C203632-100) or biotin-conjugated rabbit polyclonal anti-GFP antibody (Rockland, Cat. No. 600-406-215) diluted in buffer C + BSA (0.1 mg ml^−1; Molecular Biology Grade Bovine Serum Albumin). Activator WD40 and activated APC/C (typically 50 µl containing about 65 ng APC/C, of which only a small fraction is immobilized on the glass) were immobilized using anti-Strep-Tag II, while APC/C alone was immobilized with anti-GFP. SMOR results were similar when performed in the buffer (wash buffer B) used in polarization anisotropy.
(§3) To capture dynamic protein–protein interactions, dye-labeled substrate diluted in buffer C + BSA was added to the chamber containing immobilized proteins. Interactions were imaged by TIRF microscopy as described below. For optimal signal-to-noise ratio, peptide concentration was no greater than 1 nM. […]
(§4) Microscopy was performed with a Nikon Eclipse TE2000-E with Perfect Focus with a 100 × 1.49na oil, Apo TIRF DIC N2, 0.13-0.2, WD0.12 objective. Movies were recorded using the Andor iXon DU-897E-CSO. […]

APC/C^Apc10-4A, Cdh1 = test: SMOR assay, yeast APC/C^Apc10-4A, Cdh1; type: binding, Saccharomyces cerevisiae
Method: as §1, §2, §3, §4

hCdc20^WD40 = target: T1, hCdc20^WD40 (Homo sapiens, UniProt Q12834); test: Fluorescence anisotropy, 10 nM Cy5-labeled peptide, hCdc20^WD40; type: binding
T1 construct: human Cdc20 (aa 162–484; pNH188); made in house; host or cells: Sf9 insect cells (baculovirus)

[1] = Supplementary Table 1, replicate 1
[2] = Supplementary Table 1, replicate 2

T1 sequence (Q12834 162-484): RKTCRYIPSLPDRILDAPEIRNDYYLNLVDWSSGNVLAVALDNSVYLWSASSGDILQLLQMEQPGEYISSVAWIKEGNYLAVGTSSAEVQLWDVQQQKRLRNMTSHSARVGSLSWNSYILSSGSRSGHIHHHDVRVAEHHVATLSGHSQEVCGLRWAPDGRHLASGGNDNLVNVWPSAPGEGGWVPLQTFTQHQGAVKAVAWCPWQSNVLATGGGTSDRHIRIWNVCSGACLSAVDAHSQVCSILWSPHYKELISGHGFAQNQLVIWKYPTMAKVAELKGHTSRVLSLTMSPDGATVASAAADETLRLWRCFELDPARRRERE

Q: Which results are given for `CC[C@H](C)[C@H](NC(=O)[C@H](CC(=O)O)NC(=O)[C@H](CO)NC(=O)[C@H](C)NC(=O)[C@H](C)NC(=O)[C@H](C)NC(=O)[C@H](C)NC(=O)[C@H](CCCCN)NC(=O)[C@@H]1CCCN1C(=O)[C@H](CCCCN)NC(=O)[C@H](CCC(N)=O)NC(=O)[C@@H](N)CCC(=O)O)C(=O)N[C@H](C(=O)N[C@@H](C)C(=O)N[C@@H](CO)C(=O)N[C@@H](Cc1ccccc1)C(=O)N[C@@H](CC(N)=O)C(=O)N[C@@H](CCCCN)C(=O)N[C@@H](CCSC)C(=O)N[C@@H](CC(N)=O)C(=O)N[C@@H](CCCCN)C(=O)O)[C@@H](C)O` [Hsl1 D box mutant] (H-EQKPKAAAASDITASFNKMNK-OH; N-terminus and C-terminus assumed)?
A: binding (in words) (APC/C^Apc10-4A, Cdc20): No binding; Dwell Time (in words) (APC/C^Apc10-4A, Cdc20; [1]): no binding; binding (in words) (APC/C^Apc10-4A, Cdh1): No binding; Dwell Time (in words) (APC/C^Apc10-4A, Cdh1; [1]): no binding

Q: Which results are given for `CC[C@H](C)[C@H](NC(=O)[C@H](Cc1ccccc1)NC(=O)[C@H](CO)NC(=O)[C@H](CCCCN)NC(=O)[C@H](CO)NC(=O)[C@H](CCCNC(=N)N)NC(=O)[C@H](CC(N)=O)NC(=O)[C@H](CC(N)=O)NC(=O)[C@H](CC(=O)O)NC(=O)[C@H](CCCCN)NC(=O)[C@H](C)NC(=O)[C@H](C)NC(=O)[C@H](CC(C)C)NC(=O)[C@@H]1CCCN1C(=O)[C@H](CC(C)C)NC(=O)[C@H](CCCNC(=N)N)NC(=O)CNC(=O)[C@H](CCC(N)=O)NC(=O)[C@H](CCC(N)=O)NC(=O)[C@H](CCC(N)=O)NC(=O)[C@H](C)N)C(=O)N[C@@H](CCCCN)C(=O)O` [ySecurin D box] (H-AQQQGRLPLAAKDNNRSKSFIK-OH; N-terminus and C-terminus assumed)?
A: Dwell Time (in words) (APC/C^Apc10-4A, Cdc20; [1]): single frame; Dwell Time (in words) (APC/C^Apc10-4A, Cdc20; [2]): single frame; Dwell Time (in words) (APC/C^Apc10-4A, Cdh1; [1]): single frame; Dwell Time (in words) (APC/C^Apc10-4A, Cdh1; [2]): single frame

Q: “LIYVDKENGEPGTR-K(Cy5) [hSecurin KEN, Cy5-labeled KEN box peptide of human securin/Pttg1]” was tested. Which “binding to human Cdc20 (in words)” value (hCdc20^WD40) did it give?
A: not Cdc20

Q: “LPKATRKALGTVNRATEKSVK-K(Cy5) [AurKB D box, Cy5-labeled D box peptide of Aurora B kinase]” was tested. Which “binding to human Cdc20 (in words)” value (hCdc20^WD40) did it give?
A: not Cdc20
